Where a name gives a salt, the structure may show the parent alone.
Tested on: rat heart
Settings: isolated rat heart; cited from earlier work

SMILES | suppression of artificially produced ventricular fibrillation
N=C(N)NC(=O)c1nc(Cl)c(N)nc1N [amiloride] | completely suppressed
CCN(c1nc(N)c(C(=O)NC(=N)N)nc1Cl)C(C)C [ethylisopropylamiloride] | even more potent than amiloride

Tested on: not given
Settings: not given

SMILES | melting point
NC(N)=NC(=O)/C=C/c1cccc(F)c1 (as salt: hydrochloride) [Example 1, E-3-(3-Fluorophenyl)acrylic acid guanidide hydrochloride] | 148 °C
NC(N)=NC(=O)/C=C/c1cc(F)ccc1F (as salt: hydrochloride) [Example 2, E-3-(2,5-Difluorophenyl)acrylic acid guanidide hydrochloride] | 230 °C
NC(N)=NC(=O)/C=C/c1cc(F)cc(F)c1 (as salt: hydrochloride) [Example 3, E-3-(3,5-Difluorophenyl) acrylic acid guanidide hydrochloride] | 235 °C
NC(N)=NC(=O)/C=C/c1ccccc1F (as salt: hydrochloride) [Example 4, E-3-(2-Fluorophenyl)acrylic acid guanidide hydrochloride] | 243 °C
C/C(=C\c1cc(F)cc(F)c1)C(=O)N=C(N)N (as salt: hydrochloride) [Example 5, E-3-(3,5-Difluorophenyl)-2-methylacrylic acid guanidide hydrochloride] | 178 °C
C/C(=C\c1c(F)c(F)cc(F)c1F)C(=O)N=C(N)N (as salt: hydrochloride) [Example 9, E-3-(2,3,5,6-Tetrafluorophenyl)-2-methylacrylic acid guanidide hydrochloride] | 138 °C
